# Experimental data from PubChem BioAssay AID1963825 (Molecular Pharmacology Branch, DTP, NCI, 2024).
# Test: Anticancer human tumor 997537-175-T-J1-PDC patient-derived colon adenocarcinoma cell line growth inhibition [POLQ]
# Settings: 997537-175-T-J1-PDC complex spheroid viability, combination with POLQ inhibitors; for IC50: curve of first compound; for viability, T/C: stronger effect = lower value
# Procedure, shortened: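 PDC + HUVEC + MSC complex spheroids; POLQ inhibitors ± partner drugs; top conc. at/near clinical Cmax, else 10 microM (SN-38 1 microM), half-log dilutions; 37 degrees C, 5% CO2.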
# [1] = second compound 0.0316 µM, first compound 0.0316 µM
# [2] = second compound 0.0316 µM, first compound 0.1 µM
# [3] = second compound 0.0316 µM, first compound 0.316 µM
# [4] = second compound 0.0316 µM, first compound 1 µM
# [5] = second compound 0.0316 µM, first compound 3.16 µM
# [6] = second compound 0.0316 µM, first compound 10 µM
# [7] = second compound 0.1 µM, first compound 0.0316 µM
# [8] = second compound 0.1 µM, first compound 0.1 µM
# [9] = second compound 0.1 µM, first compound 0.316 µM
# [10] = second compound 0.1 µM, first compound 1 µM
# [11] = second compound 0.1 µM, first compound 3.16 µM
# [12] = second compound 0.1 µM, first compound 10 µM
# [13] = second compound 0.316 µM, first compound 0.0316 µM
# [14] = second compound 0.316 µM, first compound 0.1 µM
# [15] = second compound 0.316 µM, first compound 0.316 µM
# [16] = second compound 0.316 µM, first compound 1 µM
# [17] = second compound 0.316 µM, first compound 3.16 µM
# [18] = second compound 0.316 µM, first compound 10 µM
# [19] = second compound 1 µM, first compound 0.0316 µM
# [20] = second compound 1 µM, first compound 0.1 µM
# [21] = second compound 1 µM, first compound 0.316 µM
# [22] = second compound 1 µM, first compound 1 µM
# [23] = second compound 1 µM, first compound 3.16 µM
# [24] = second compound 1 µM, first compound 10 µM
# [25] = second compound 3.16 µM, first compound 0.0316 µM
# [26] = second compound 3.16 µM, first compound 0.1 µM
# [27] = second compound 3.16 µM, first compound 0.316 µM
# [28] = second compound 3.16 µM, first compound 1 µM
# [29] = second compound 3.16 µM, first compound 3.16 µM
# [30] = second compound 3.16 µM, first compound 10 µM
# [31] = second compound 10 µM, first compound 0.0316 µM
# [32] = second compound 10 µM, first compound 0.1 µM
# [33] = second compound 10 µM, first compound 0.316 µM
# [34] = second compound 10 µM, first compound 1 µM
# [35] = second compound 10 µM, first compound 3.16 µM
# [36] = second compound 10 µM, first compound 10 µM
# 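Also: luminescence signal used as a surrogate for viable cells; spheroids exposed to drugs for seven days before readout.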
smiles,measurement,setting,value
CC1COCCN1c1cc(-c2ccnn2C)c2ccnc(-c3ccn[nH]3)c2n1 (stereo unspecified) + COC1C(OC(N)=O)C(O)C(Oc2ccc3c(O)c(NC(=O)c4ccc(O)c(CC=C(C)C)c4)c(=O)oc3c2C)OC1(C)C,IC50,second compound 0.0316 µM,0.221 µM
same,IC50,second compound 0.1 µM,0.648 µM
same,IC50,second compound 0.316 µM,0.314 µM
same,IC50,second compound 1 µM,0.409 µM
same,IC50,second compound 3.16 µM,0.666 µM
same,IC50,second compound 10 µM,> 10 µM
same,"viability, T/C",[1],77.2%
same,"viability, T/C",[2],70.2%
same,"viability, T/C",[3],40.4%
same,"viability, T/C",[4],47%
same,"viability, T/C",[5],24.8%
same,"viability, T/C",[6],51.3%
same,"viability, T/C",[7],83.3%
same,"viability, T/C",[8],81.5%
same,"viability, T/C",[9],64.1%
same,"viability, T/C",[10],42.5%
same,"viability, T/C",[11],24.7%
same,"viability, T/C",[12],52.9%
same,"viability, T/C",[13],88.1%
same,"viability, T/C",[14],88.1%
same,"viability, T/C",[15],49.7%
same,"viability, T/C",[16],46.3%
same,"viability, T/C",[17],33%
same,"viability, T/C",[18],66.8%
same,"viability, T/C",[19],96.5%
same,"viability, T/C",[20],75%
same,"viability, T/C",[21],54.3%
same,"viability, T/C",[22],39%
same,"viability, T/C",[23],33.1%
same,"viability, T/C",[24],56.1%
same,"viability, T/C",[25],99.5%
same,"viability, T/C",[26],88.9%
same,"viability, T/C",[27],66.1%
same,"viability, T/C",[28],31.5%
same,"viability, T/C",[29],27.4%
same,"viability, T/C",[30],64.9%
same,"viability, T/C",[31],87%
same,"viability, T/C",[32],64.7%
same,"viability, T/C",[33],44%
same,"viability, T/C",[34],54%
same,"viability, T/C",[35],32.2%
same,"viability, T/C",[36],70.3%
CC1COCCN1c1cc(C2(S(C)(=N)=O)CC2)nc(-c2ccnc3[nH]ccc23)n1 (stereo unspecified) + COC1C(OC(N)=O)C(O)C(Oc2ccc3c(O)c(NC(=O)c4ccc(O)c(CC=C(C)C)c4)c(=O)oc3c2C)OC1(C)C,IC50,second compound 0.0316 µM,> 10 µM
same,IC50,second compound 0.1 µM,> 10 µM
same,IC50,second compound 0.316 µM,> 10 µM
same,IC50,second compound 1 µM,> 10 µM
same,IC50,second compound 3.16 µM,> 10 µM
same,IC50,second compound 10 µM,> 10 µM
same,"viability, T/C",[1],113%
same,"viability, T/C",[2],114%
same,"viability, T/C",[3],84.4%
same,"viability, T/C",[4],85.4%
same,"viability, T/C",[5],90%
same,"viability, T/C",[6],49.9%
same,"viability, T/C",[7],94.5%
same,"viability, T/C",[8],102%
same,"viability, T/C",[9],82.7%
same,"viability, T/C",[10],72.1%
same,"viability, T/C",[11],80.3%
same,"viability, T/C",[12],60.5%
same,"viability, T/C",[13],99.8%
same,"viability, T/C",[14],112%
same,"viability, T/C",[15],105%
same,"viability, T/C",[16],94.2%
same,"viability, T/C",[17],77.7%
same,"viability, T/C",[18],54.7%
same,"viability, T/C",[19],110%
same,"viability, T/C",[20],92.7%
same,"viability, T/C",[21],102%
same,"viability, T/C",[22],106%
same,"viability, T/C",[23],67%
same,"viability, T/C",[24],56.4%
same,"viability, T/C",[25],109%
same,"viability, T/C",[26],112%
same,"viability, T/C",[27],106%
same,"viability, T/C",[28],94.3%
same,"viability, T/C",[29],79.2%
same,"viability, T/C",[30],66.6%
same,"viability, T/C",[31],109%
same,"viability, T/C",[32],95.7%
same,"viability, T/C",[33],98.9%
same,"viability, T/C",[34],66.5%
same,"viability, T/C",[35],71.6%
same,"viability, T/C",[36],62.8%
COc1ccc([C@@H](O)c2cc(-c3ncnc4cc(N5CCOCC5)ccc34)c(F)cc2Cl)nn1 + COC1C(OC(N)=O)C(O)C(Oc2ccc3c(O)c(NC(=O)c4ccc(O)c(CC=C(C)C)c4)c(=O)oc3c2C)OC1(C)C,IC50,second compound 0.0316 µM,> 10 µM
same,IC50,second compound 0.1 µM,> 10 µM
same,IC50,second compound 0.316 µM,> 10 µM
same,IC50,second compound 1 µM,> 10 µM
same,IC50,second compound 3.16 µM,> 10 µM
same,IC50,second compound 10 µM,> 10 µM
same,"viability, T/C",[1],116%
same,"viability, T/C",[2],115%
same,"viability, T/C",[3],110%
same,"viability, T/C",[4],92%
same,"viability, T/C",[5],105%
same,"viability, T/C",[6],87.7%
same,"viability, T/C",[7],109%
same,"viability, T/C",[8],103%
same,"viability, T/C",[9],95.3%
same,"viability, T/C",[10],97.5%
same,"viability, T/C",[11],94.4%
same,"viability, T/C",[12],98.5%
same,"viability, T/C",[13],107%
same,"viability, T/C",[14],103%
same,"viability, T/C",[15],92.5%
same,"viability, T/C",[16],96.8%
same,"viability, T/C",[17],115%
same,"viability, T/C",[18],81.7%
same,"viability, T/C",[19],98%
same,"viability, T/C",[20],106%
same,"viability, T/C",[21],109%
same,"viability, T/C",[22],92.4%
same,"viability, T/C",[23],97.2%
same,"viability, T/C",[24],77.4%
same,"viability, T/C",[25],106%
same,"viability, T/C",[26],108%
same,"viability, T/C",[27],109%
same,"viability, T/C",[28],105%
same,"viability, T/C",[29],93.3%
same,"viability, T/C",[30],83.8%
same,"viability, T/C",[31],111%
same,"viability, T/C",[32],103%
same,"viability, T/C",[33],118%
same,"viability, T/C",[34],83.6%
same,"viability, T/C",[35],115%
same,"viability, T/C",[36],114%
